Results on 30 compounds are retold here after ChEMBL document CHEMBL4834404, “Template-Hopping Approach Leads to Potent, Selective, and Highly Soluble Bromo and Extraterminal Domain (BET) Second Bromodomain (BD2) Inhibitors” (J Med Chem, 2021).

Data set [1] deals with Bromodomain-containing protein 4 (Homo sapiens, UniProt O60885, Y390A). The data set is described as follows: Inhibition of 6His-Thr-BRD4 (1 to 477 residues) BD2 domain Y390A mutant (unknown origin) incubated for 30 mins by TR-FRET assay. (Time-resolved FRET reads energy transfer from a long-lived donor to a nearby acceptor.)
Data set [2] can be described thus: Solubility of compound by CLND assay. Type of data set: physicochemical.
Data set [3] is described as follows: Permeability of compound. It counts as ADME. The note with it: not told; read-out: permeability.
For data set [4], the target named is Bromodomain-containing protein 4 (Homo sapiens, UniProt O60885, Y97A). The data set is described as follows: Inhibition of 6His-Thr-BRD4 (1 to 477 residues) BD1 Y97A mutant (unknown origin) incubated for 30 mins by TR-FRET assay.
The species entered for data set [5] is Homo sapiens. The data set is described as follows: Selectivity index, ratio of pIC50 of BRD4 BD1 (unknown origin) to pIC50 of BRD4 BD2 (unknown origin).

SMILES strings stand for the structures. Converted amounts (≈) assume the structure as drawn.

Consider `CCNC(=O)c1ccc(O[C@@H](C)c2ccccc2)c(-c2cn(C)nn2)c1`, for which the IC50 in data set [1] was 0.0398 µM; in data set [4], 3.98 µM. In data set [2], this compound showed a solubility (kinetic) of 105 µg/mL (≈ 300 µM). Moreover, the Papp in data set [3] is 42 ×10⁻⁶ cm/s. For the same compound, in data set [5], the Ratio pIC50 was determined as 100.

With `C[C@H](Oc1ccc(C(=O)NCC[C@H]2CNCCO2)cc1-c1cn(C)nn1)c1ccccn1`, the results for the IC50 in data set [1] and in data set [4] were 0.0631 µM and 7.94 µM, respectively. This compound registered a solubility (kinetic) in data set [2] of no less than 182 µg/mL. Moreover, the Papp in data set [3] was less than 0.3 ×10⁻⁶ cm/s. Besides, the Ratio pIC50 in data set [5] was 125.

As for `Cn1cc(-c2cc(C(=O)NCCC[C@@]3(F)CCCNC3)cc(Cc3ccccc3)n2)nn1`, the half-maximal inhibitory concentration (IC50) is 0.01 µM in data set [1] and 5.01 µM in data set [4]. Besides, the solubility (kinetic) in data set [2] is no less than 172 µg/mL. Moreover, the Papp in data set [3] is 2.3 ×10⁻⁶ cm/s. Moreover, in data set [5], the Ratio pIC50 stood at 500.

As to `C[C@H](Oc1ccc(C(=O)NCC[C@@H]2CNCCO2)cc1-c1cn(C)nn1)c1ccccn1`, the IC50 was 0.0251 µM in data set [1] and 6.31 µM in data set [4]. This compound returned a kinetic solubility in data set [2] of no less than 177 µg/mL. Moreover, the Papp in data set [3] is less than 0.3 ×10⁻⁶ cm/s. Also, the Ratio pIC50 in data set [5] worked out at 250.

`CNC(=O)c1cc(C(=O)NC2CC2)cn(Cc2ccccc2)c1=O` [GSK620] returned a solubility (kinetic) in data set [2] of no less than 154 µg/mL. In addition, the Papp in data set [3] stood at 20 ×10⁻⁶ cm/s.

Consider `CCNC(=O)c1ccc(O[C@@H](C)c2ccccn2)c(-c2cn(C)nn2)c1`, for which the values for the IC50 in data set [1] and in data set [4] were 0.0794 µM and 7.94 µM, respectively. For the same compound, in data set [2], the solubility (kinetic) is no less than 127 µg/mL. For the same compound, the Papp in data set [3] came to 15 ×10⁻⁶ cm/s. The Ratio pIC50 in data set [5] is 100.

Turning to `CCNC(=O)c1ccc(OCc2ccccn2)c(-c2cn(C)nn2)c1`, the IC50 in data set [1] is 0.316 µM; in data set [4] it was 39.8 µM. The compound also gave a solubility (kinetic) in data set [2] of 114 µg/mL (≈ 338 µM). In addition, in data set [3], the Papp turned out to be 14 ×10⁻⁶ cm/s. For the same compound, in data set [5], the Ratio pIC50 worked out at 125.

`C[C@H](Oc1ccc(C(=O)N[C@H]2[C@@H]3COC[C@@H]32)cc1-c1cn(C)nn1)c1ccccn1`: the IC50 in data set [1] was 0.0251 µM; in data set [4], 1.58 µM. In data set [2], this compound had a solubility (kinetic) of no less than 169 µg/mL. For the same compound, the Papp in data set [3] is 4.2 ×10⁻⁶ cm/s. Further, in data set [5], the Ratio pIC50 was found to be 65.

Regarding `C[C@H](Oc1ccc(C(=O)NCC2CCOCC2)cc1-c1cn(C)nn1)c1ccccn1`, the IC50 is 0.501 µM in data set [1] and 31.6 µM in data set [4]. This compound displayed a solubility (kinetic) in data set [2] of no less than 192 µg/mL. For the same compound, the Papp in data set [3] turned out to be 5.5 ×10⁻⁶ cm/s. Further, the Ratio pIC50 in data set [5] was 65.

In the case of `C[C@H](Oc1ccc(C(N)=O)cc1-c1cn(C)nn1)c1ccccn1`, the half-inhibitory concentration (IC50) in data set [1] is 0.251 µM; in data set [4], 6.31 µM. This compound registered a kinetic solubility in data set [2] of 131 µg/mL (≈ 405 µM). For the same compound, the Papp in data set [3] came to 4.7 ×10⁻⁶ cm/s. The Ratio pIC50 in data set [5] is 25.

`CC(=O)Nc1ccccc1OCc1ccccc1` registered a solubility (kinetic) in data set [2] of no less than 113 µg/mL.

Take `CCNC(=O)c1cc(Cc2ccccc2F)nc(-c2cn(C)nn2)c1`: the IC50 in data set [1] is 0.2 µM; in data set [4] it was 20 µM. Besides, the solubility (kinetic) in data set [2] came to 66 µg/mL (≈ 194 µM). In data set [3], the Papp came out at 30 ×10⁻⁶ cm/s. The Ratio pIC50 in data set [5] turned out to be 100.

`CCNC(=O)c1ccc(OCc2cccc(OC)c2)c(-c2cn(C)nn2)c1`: the concentration for half-maximal inhibition (IC50) in data set [1] is 0.251 µM; in data set [4], 20 µM. The compound further returned a kinetic solubility in data set [2] of no less than 139 µg/mL. For the same compound, the Papp in data set [3] stood at 42 ×10⁻⁶ cm/s. For the same compound, the Ratio pIC50 in data set [5] turned out to be 80.

With `Cn1cc(-c2cc(C(=O)NCC[C@H]3CNCCO3)cc(Cc3ccccc3)n2)nn1`, the IC50 in data set [1] is 0.0631 µM; in data set [4], 15.8 µM. In addition, the solubility (kinetic) in data set [2] is no less than 189 µg/mL. For the same compound, the Papp in data set [3] was 4.8 ×10⁻⁶ cm/s. In data set [5], the Ratio pIC50 was 250.

For `CCNC(=O)c1ccc(OCc2ccncc2)c(-c2cn(C)nn2)c1`, the IC50 is 1 µM in data set [1] and 12.6 µM in data set [4]. In data set [2], this compound gave a solubility (kinetic) of no less than 115 µg/mL. In data set [3], the Papp was determined as 30 ×10⁻⁶ cm/s. Besides, in data set [5], the Ratio pIC50 was found to be 15.

For `Cc1nc(-c2ccccc2OCc2ccccc2)n[nH]1`, the IC50 was 7.94 µM in data set [1] and greater than 50.1 µM in data set [4]. The kinetic solubility in data set [2] is no less than 70 µg/mL. The Ratio pIC50 in data set [5] was greater than 6.

Take `CCNC(=O)c1ccc(OCc2ccccc2)c(-c2cn(C)nn2)c1`: the IC50 is 0.126 µM in data set [1] and 12.6 µM in data set [4]. The compound further displayed a solubility (kinetic) in data set [2] of 46 µg/mL (≈ 137 µM). The Papp in data set [3] was found to be 4.6 ×10⁻⁶ cm/s. In addition, in data set [5], the Ratio pIC50 came to 100.

On to `CCNC(=O)c1cc(Cc2ccc(OC)cc2)nc(-c2cn(C)nn2)c1`, for which the IC50 in data set [1] is 0.794 µM; in data set [4], greater than 50.1 µM. In data set [2], this compound had a solubility (kinetic) of 53 µg/mL (≈ 151 µM). Moreover, in data set [3], the Papp stood at 32 ×10⁻⁶ cm/s. The Ratio pIC50 in data set [5] is greater than 65.

Consider `CCNC(=O)c1cc(Cc2ccc(F)cc2)nc(-c2cn(C)nn2)c1`, for which the figures for the IC50 in data set [1] and in data set [4] were 0.251 µM and 20 µM, respectively. In data set [2], the solubility (kinetic) was 75 µg/mL (≈ 221 µM). In data set [3], the Papp came to 33 ×10⁻⁶ cm/s. In addition, in data set [5], the Ratio pIC50 worked out at 80.

Consider `Cn1cc(-c2cc(C(=O)NCCCC3CCNCC3)cc(Cc3ccccc3)n2)nn1`, for which the IC50 in data set [1] was 0.0251 µM; in data set [4], 10 µM. Besides, the kinetic solubility in data set [2] is no less than 134 µg/mL. Besides, in data set [3], the Papp was less than 0.3 ×10⁻⁶ cm/s. Further, in data set [5], the Ratio pIC50 is 400.

Turning to `CCNC(=O)c1ccc(OCc2cccnc2)c(-c2cn(C)nn2)c1`, the IC50 was 1 µM in data set [1] and greater than 50.1 µM in data set [4]. In data set [2], this compound returned a kinetic solubility of 103 µg/mL (≈ 305 µM). Also, in data set [3], the Papp amounted to 18 ×10⁻⁶ cm/s. For the same compound, the Ratio pIC50 in data set [5] was greater than 50.

As to `CNC(=O)c1ccc(O[C@@H](C)c2ccccn2)c(-c2cn(C)nn2)c1`, the IC50 in data set [1] is 0.126 µM; in data set [4], 10 µM. In data set [2], the solubility (kinetic) is no less than 138 µg/mL. Moreover, the Papp in data set [3] came to 7 ×10⁻⁶ cm/s. Also, the Ratio pIC50 in data set [5] stood at 80.

As to `Cn1cc(-c2cc(C(=O)NC3CCOCC3)cc(Cc3ccccc3)n2)nn1`, the IC50 is 0.126 µM in data set [1] and 20 µM in data set [4]. Moreover, the kinetic solubility in data set [2] was no less than 141 µg/mL. The Papp in data set [3] worked out at 27 ×10⁻⁶ cm/s. Further, the Ratio pIC50 in data set [5] is 160.

For the compound `Cc1nnc(-c2ccccc2OCc2ccccc2)o1`, the IC50 in data set [1] was 12.6 µM; in data set [4] it was greater than 50.1 µM. This compound returned a solubility (kinetic) in data set [2] of no less than 252 µg/mL. In data set [5], the Ratio pIC50 was greater than 4.

For the compound `Cn1cc(-c2ccccc2OCc2ccccc2)nn1`, the IC50 was 3.98 µM in data set [1] and 20 µM in data set [4]. For the same compound, the solubility (kinetic) in data set [2] is 87 µg/mL (≈ 328 µM). Besides, the Ratio pIC50 in data set [5] amounted to 5.

For the compound `Cc1cn(-c2ccccc2OCc2ccccc2)nn1`, the IC50 in data set [1] is 15.8 µM; in data set [4], 31.6 µM. The compound also had a kinetic solubility in data set [2] of 96 µg/mL (≈ 362 µM). The Ratio pIC50 in data set [5] amounted to 2.

`Cn1cc(-c2cc(C(=O)NC3CC3)cc(Cc3ccccc3)n2)nn1` showed an IC50 in data set [1] of 0.126 µM. Further, the kinetic solubility in data set [2] is no less than 76 µg/mL. Besides, the Papp in data set [3] is 36 ×10⁻⁶ cm/s. In addition, the Ratio pIC50 in data set [5] worked out at 125.

As for `Cc1cc(-c2ccccc2OCc2ccccc2)on1`, the IC50 in data set [1] was 3.98 µM; in data set [4] it was 10 µM. The same compound gave a kinetic solubility in data set [2] of 1 µg/mL (≈ 3.77 µM). Besides, in data set [5], the Ratio pIC50 is 3.

Take `CCNC(=O)c1cc(Cc2ccccc2)nc(-c2cn(C)nn2)c1`: half-maximal inhibition in data set [1] (IC50) was put at 0.1 µM. This compound also registered a kinetic solubility in data set [2] of no less than 157 µg/mL. For the same compound, in data set [3], the Papp was found to be 32.5 ×10⁻⁶ cm/s. Also, the Ratio pIC50 in data set [5] is 170.

In the case of `CCNC(=O)c1ccc(OCC2CCOCC2)c(-c2cn(C)nn2)c1`, the kinetic solubility in data set [2] is no less than 208 µg/mL. The Papp in data set [3] stood at 11 ×10⁻⁶ cm/s.

The IC50 is the concentration that inhibits the measured activity by half. A lower IC50 goes with higher potency. The term solubility (kinetic) denotes solubility judged after dilution from a stock solution rather than from solid.
